In US20080096947A1, “Parenteral Forms Of Administration Of Imexon And Method For The Production Thereof” (Heidelberg Pharma AG, priority 2004, published 2008):
“Also recorded” adds a separate entry of the source.

Experiments:
[1] = Solubility of imexon in water; assay type: physicochemical
[2] = background statement; therapeutically effective dosages only intravenously; cited from earlier work
[3] = Stability of imexon in organic solvents; assay type: physicochemical
[4] = Stability of imexon in aqueous solution; assay type: physicochemical; conditions: aziridine ring opens, isomerises to water-insoluble products

N=C1NC(=O)N2CC12 (centres unmarked) [Imexon, 4-imino-1,3-diazabicyclo-(3.1.0)-hexane-2-one]
solubility in water [1]: highly soluble in water
bioavailability [2]: low bioavailability
stability of solution in DMSO ([3]; DMSO): stable solution of imexon can be produced
stability in organic solvents ([3]; some organic solvents, in contrast to water): remains stable over a prolonged period
stability in water / aqueous solutions [4]: not stable; also recorded: decomposes in aqueous solutions after a short period
